Key:
Experiment in all cases: 33PanQinase panel
Type in all cases: biochemical
MATK = molecular target: T1, MATK (Homo sapiens, UniProt P42679); conditions: read-out: Residual Activity (%)
T1 construct: purchased ProQinase
Procedure: (§1) Figure 5 Dendrogram representation of the selectivity profile of 29d at a concentration of 1 μM in a panel of 320 wild-type kinases (ProQinase, Freiburg, Germany). The residual kinase activity was determined compared to DMSO control. Images were generated using TREEspot Software Tool, DISCOVERX CORPORATION 2010. […]
(§2) Table S2. Selectivity profile of compound 29d. The inhibitor has been screened at a concentration of 1 µM over a panel of 320 wild-type protein kinases by ProQinase GmbH (Freiburg, Germany) using an activity-based radiometric 33PanQinase® assay. Results are presented as percentage of residual kinase activity relative to […]
(§3) control. The final DMSO concentration was 1 % in each reaction-mix. Classification of protein kinase families refers to Manning et al. (Manning, G.; Whyte, D. B.; Martinez, R.; Hunter, T.; Sudarsanam, S. The Protein Kinase Complement of the Human Genome. Science 2002, 298, 1912–1934): AGC = containing PKA, PKG, PKC families; […] = containing Cdk, MAPK, GSK3, CLK families; STE = homologs of yeast sterile 7, sterile 11, sterile 20 kinases; TK = tyrosine kinase; TKL = tyrosine kinase-like.
(§4) Kinase name Kinase family Residual Activity (%)

TSK2 = molecular target: T2, TSK2 (Homo sapiens, UniProt Q96PF2); conditions: TSK2, 1 µM; read-out: Residual Activity (%)
T2 construct: purchased ProQinase
Procedure: as §1, §2, §3, §4

CK2-alpha1 = molecular target: T3, CK2-alpha1 (Homo sapiens, UniProt P68400); conditions: CK2-alpha1, 1 µM; read-out: Residual Activity (%)
T3 construct: purchased ProQinase
T3 sequence (P68400 whole entry): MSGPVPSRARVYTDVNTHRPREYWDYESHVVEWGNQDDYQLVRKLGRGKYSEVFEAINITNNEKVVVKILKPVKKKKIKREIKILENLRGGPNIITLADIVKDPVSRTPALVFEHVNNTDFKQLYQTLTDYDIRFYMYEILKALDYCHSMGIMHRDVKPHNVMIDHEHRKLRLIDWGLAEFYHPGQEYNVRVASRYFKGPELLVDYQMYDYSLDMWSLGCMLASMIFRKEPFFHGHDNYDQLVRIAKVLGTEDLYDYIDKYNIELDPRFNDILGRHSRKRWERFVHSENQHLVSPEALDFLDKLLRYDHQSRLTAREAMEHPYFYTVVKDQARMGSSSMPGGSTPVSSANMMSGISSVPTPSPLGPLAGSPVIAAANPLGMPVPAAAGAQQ
Procedure: as §1, §2, §3, §4

MAPKAPK5 = molecular target: T4, MAPKAPK5 (Homo sapiens, UniProt Q8IW41); conditions: MAPKAPK5, 1 µM; read-out: Residual Activity (%)
T4 construct: purchased ProQinase
Procedure: as §1, §2, §3, §4

SRPK1 = molecular target: T5, SRPK1 (Homo sapiens, UniProt Q96SB4); conditions: SRPK1, 1 µM; read-out: Residual Activity (%)
T5 construct: purchased ProQinase
Procedure: as §1, §2, §3, §4

PDGFR-beta = molecular target: T6, PDGFR-beta (Homo sapiens, UniProt P09619); conditions: read-out: Residual Activity (%)
T6 construct: purchased ProQinase
Procedure: as §1, §2, §3, §4

RPS6KA1 = molecular target: T7, RPS6KA1 (Homo sapiens, UniProt Q15418); conditions: RPS6KA1, 1 µM; read-out: Residual Activity (%)
T7 construct: purchased ProQinase
T7 sequence (Q15418 whole entry): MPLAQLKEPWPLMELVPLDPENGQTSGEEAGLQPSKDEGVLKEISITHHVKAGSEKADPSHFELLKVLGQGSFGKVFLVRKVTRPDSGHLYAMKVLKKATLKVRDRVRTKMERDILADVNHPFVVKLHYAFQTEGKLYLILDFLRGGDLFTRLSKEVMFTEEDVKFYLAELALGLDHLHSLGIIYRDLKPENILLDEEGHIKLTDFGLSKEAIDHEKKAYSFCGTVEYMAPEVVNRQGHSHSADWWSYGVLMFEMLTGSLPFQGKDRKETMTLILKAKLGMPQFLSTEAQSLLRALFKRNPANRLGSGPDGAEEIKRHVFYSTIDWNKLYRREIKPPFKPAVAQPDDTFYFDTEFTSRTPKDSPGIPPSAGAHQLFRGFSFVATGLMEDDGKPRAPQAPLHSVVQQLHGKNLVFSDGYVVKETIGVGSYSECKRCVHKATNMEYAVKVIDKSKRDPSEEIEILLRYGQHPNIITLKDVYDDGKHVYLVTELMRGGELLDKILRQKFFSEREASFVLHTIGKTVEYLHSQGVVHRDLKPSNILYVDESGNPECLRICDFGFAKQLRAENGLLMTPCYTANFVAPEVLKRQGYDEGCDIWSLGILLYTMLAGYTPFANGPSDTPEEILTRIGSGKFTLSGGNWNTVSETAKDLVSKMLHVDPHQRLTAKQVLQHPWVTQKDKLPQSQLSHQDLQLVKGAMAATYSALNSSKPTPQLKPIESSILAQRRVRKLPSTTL
Procedure: as §1, §2, §3, §4

ERK5 = molecular target: T8, ERK5 (Homo sapiens, UniProt Q13164); conditions: ERK5, 1 µM; read-out: Residual Activity (%)
T8 construct: purchased ProQinase
T8 sequence (Q13164 whole entry): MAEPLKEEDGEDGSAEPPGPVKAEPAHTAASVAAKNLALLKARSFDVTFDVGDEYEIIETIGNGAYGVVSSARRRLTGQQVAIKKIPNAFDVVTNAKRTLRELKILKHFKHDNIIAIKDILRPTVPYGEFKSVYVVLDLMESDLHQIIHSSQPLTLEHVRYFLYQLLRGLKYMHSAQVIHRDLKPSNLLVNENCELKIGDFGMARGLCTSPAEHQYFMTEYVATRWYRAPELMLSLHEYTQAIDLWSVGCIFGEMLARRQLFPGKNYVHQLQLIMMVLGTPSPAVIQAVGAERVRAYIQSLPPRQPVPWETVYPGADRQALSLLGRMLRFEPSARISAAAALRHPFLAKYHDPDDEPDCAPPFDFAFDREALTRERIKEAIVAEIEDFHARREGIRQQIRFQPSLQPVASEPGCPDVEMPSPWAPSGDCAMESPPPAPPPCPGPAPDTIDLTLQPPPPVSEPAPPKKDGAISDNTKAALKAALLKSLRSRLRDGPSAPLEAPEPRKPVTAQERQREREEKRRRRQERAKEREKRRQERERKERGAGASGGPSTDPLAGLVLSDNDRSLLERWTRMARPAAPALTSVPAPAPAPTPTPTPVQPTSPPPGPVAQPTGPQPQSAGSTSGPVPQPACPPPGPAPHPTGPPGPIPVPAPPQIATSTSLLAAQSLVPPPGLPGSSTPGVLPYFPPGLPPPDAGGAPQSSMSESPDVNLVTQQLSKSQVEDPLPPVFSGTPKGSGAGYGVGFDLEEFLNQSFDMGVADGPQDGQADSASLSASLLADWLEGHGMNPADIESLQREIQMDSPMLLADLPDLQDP
Procedure: as §1, §2, §3, §4

TSSK1 = molecular target: T9, TSSK1 (Homo sapiens, UniProt Q9BXA7); conditions: TSSK1, 1 µM; read-out: Residual Activity (%)
T9 construct: purchased ProQinase
Procedure: as §1, §2, §3, §4

VEGF-R3 = molecular target: T10, VEGF-R3 (Homo sapiens, UniProt P35916); conditions: VEGF-R3, 1 µM; read-out: Residual Activity (%)
T10 construct: purchased ProQinase
Procedure: as §1, §2, §3, §4

PAK2 = molecular target: T11, PAK2 (Homo sapiens, UniProt Q13177); conditions: PAK2, 1 µM; read-out: Residual Activity (%)
T11 construct: purchased ProQinase
T11 sequence (Q13177 whole entry): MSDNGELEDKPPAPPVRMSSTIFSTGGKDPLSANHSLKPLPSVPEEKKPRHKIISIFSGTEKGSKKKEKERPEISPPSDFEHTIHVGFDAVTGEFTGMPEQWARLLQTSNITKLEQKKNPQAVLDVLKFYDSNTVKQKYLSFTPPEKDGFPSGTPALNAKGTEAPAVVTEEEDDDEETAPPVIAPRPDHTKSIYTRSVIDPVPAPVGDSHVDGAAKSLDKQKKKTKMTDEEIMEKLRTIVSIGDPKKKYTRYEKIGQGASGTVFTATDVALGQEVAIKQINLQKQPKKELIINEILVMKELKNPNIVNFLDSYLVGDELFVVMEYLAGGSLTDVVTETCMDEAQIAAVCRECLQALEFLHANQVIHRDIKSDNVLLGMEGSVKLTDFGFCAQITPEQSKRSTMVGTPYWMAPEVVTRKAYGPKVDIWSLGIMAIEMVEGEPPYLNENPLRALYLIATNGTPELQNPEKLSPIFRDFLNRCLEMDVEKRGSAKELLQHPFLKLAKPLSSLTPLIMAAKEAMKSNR
Procedure: as §1, §2, §3, §4

CDK2/CycE1 = molecular target: T12, CDK2/CycE1 (Homo sapiens, UniProt P24941); conditions: CDK2/CycE1, 1 µM; read-out: Residual Activity (%)
T12 construct: purchased ProQinase
Procedure: as §1, §2, §3, §4

CHK1 = molecular target: T13, CHK1 (Homo sapiens, UniProt O14757); conditions: CHK1, 1 µM; read-out: Residual Activity (%)
T13 construct: purchased ProQinase
Procedure: as §1, §2, §3, §4

MST3 = molecular target: T14, MST3 (Homo sapiens, UniProt Q9Y6E0); conditions: MST3, 1 µM; read-out: Residual Activity (%)
T14 construct: purchased ProQinase
Procedure: as §1, §2, §3, §4

BRSK1 = molecular target: T15, BRSK1 (Homo sapiens, UniProt Q8TDC3); conditions: BRSK1, 1 µM; read-out: Residual Activity (%)
T15 construct: purchased ProQinase
Procedure: as §1, §2, §3, §4

EPHA4 = molecular target: T16, EPHA4 (Homo sapiens, UniProt P54764); conditions: EPHA4, 1 µM; read-out: Residual Activity (%)
T16 construct: purchased ProQinase
Procedure: as §1, §2, §3, §4

WEE1 = molecular target: T17, WEE1 (Homo sapiens, UniProt P30291); conditions: WEE1, 1 µM; read-out: Residual Activity (%)
T17 construct: purchased ProQinase
T17 sequence (P30291 whole entry): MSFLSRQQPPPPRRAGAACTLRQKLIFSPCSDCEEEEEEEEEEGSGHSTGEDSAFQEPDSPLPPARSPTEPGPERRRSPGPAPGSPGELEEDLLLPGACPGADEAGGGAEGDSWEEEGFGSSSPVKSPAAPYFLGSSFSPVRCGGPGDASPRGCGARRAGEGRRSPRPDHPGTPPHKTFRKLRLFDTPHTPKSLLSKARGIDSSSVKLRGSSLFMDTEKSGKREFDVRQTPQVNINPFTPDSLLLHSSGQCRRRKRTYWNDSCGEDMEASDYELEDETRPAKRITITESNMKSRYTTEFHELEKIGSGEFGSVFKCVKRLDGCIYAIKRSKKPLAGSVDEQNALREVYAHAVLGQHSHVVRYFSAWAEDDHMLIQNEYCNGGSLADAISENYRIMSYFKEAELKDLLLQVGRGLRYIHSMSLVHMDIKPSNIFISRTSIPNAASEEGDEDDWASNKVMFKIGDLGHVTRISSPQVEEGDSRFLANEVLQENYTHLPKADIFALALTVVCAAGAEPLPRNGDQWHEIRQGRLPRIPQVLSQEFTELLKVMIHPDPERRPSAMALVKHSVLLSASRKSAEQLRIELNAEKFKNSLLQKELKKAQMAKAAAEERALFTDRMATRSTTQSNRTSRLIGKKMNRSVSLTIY
Procedure: as §1, §2, §3, §4

ABL1 = molecular target: T18, ABL1 (Homo sapiens, UniProt P00519); conditions: ABL1, 1 µM; read-out: Residual Activity (%)
T18 construct: purchased ProQinase
Procedure: as §1, §2, §3, §4

EPHB4 = molecular target: T19, EPHB4 (Homo sapiens, UniProt P54760); conditions: EPHB4, 1 µM; read-out: Residual Activity (%)
T19 construct: purchased ProQinase
Procedure: as §1, §2, §3, §4

NLK = molecular target: T20, NLK (Homo sapiens, UniProt Q9UBE8); conditions: read-out: Residual Activity (%)
T20 construct: purchased ProQinase
T20 sequence (Q9UBE8 whole entry): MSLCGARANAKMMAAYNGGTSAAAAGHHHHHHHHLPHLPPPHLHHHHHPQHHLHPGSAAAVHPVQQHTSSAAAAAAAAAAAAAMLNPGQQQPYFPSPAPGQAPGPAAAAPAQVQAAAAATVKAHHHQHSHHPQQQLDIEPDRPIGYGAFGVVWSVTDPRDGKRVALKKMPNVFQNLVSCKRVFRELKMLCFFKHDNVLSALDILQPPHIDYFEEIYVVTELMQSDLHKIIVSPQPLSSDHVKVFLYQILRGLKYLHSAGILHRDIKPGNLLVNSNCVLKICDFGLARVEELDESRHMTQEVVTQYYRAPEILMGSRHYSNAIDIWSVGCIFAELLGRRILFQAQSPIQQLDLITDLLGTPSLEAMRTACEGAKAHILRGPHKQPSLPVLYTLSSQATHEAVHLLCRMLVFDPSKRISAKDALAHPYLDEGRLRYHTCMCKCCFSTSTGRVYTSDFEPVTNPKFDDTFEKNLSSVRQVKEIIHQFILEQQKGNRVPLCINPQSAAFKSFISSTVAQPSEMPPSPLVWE
Procedure: as §1, §2, §3, §4

PKC-eta = molecular target: T21, PKC-eta (Homo sapiens, UniProt P24723); conditions: read-out: Residual Activity (%)
T21 construct: purchased ProQinase
Procedure: as §1, §2, §3, §4

GRK4 = molecular target: T22, GRK4 (Homo sapiens, UniProt P32298); conditions: GRK4, 1 µM; read-out: Residual Activity (%)
T22 construct: purchased ProQinase
T22 sequence (P32298 whole entry): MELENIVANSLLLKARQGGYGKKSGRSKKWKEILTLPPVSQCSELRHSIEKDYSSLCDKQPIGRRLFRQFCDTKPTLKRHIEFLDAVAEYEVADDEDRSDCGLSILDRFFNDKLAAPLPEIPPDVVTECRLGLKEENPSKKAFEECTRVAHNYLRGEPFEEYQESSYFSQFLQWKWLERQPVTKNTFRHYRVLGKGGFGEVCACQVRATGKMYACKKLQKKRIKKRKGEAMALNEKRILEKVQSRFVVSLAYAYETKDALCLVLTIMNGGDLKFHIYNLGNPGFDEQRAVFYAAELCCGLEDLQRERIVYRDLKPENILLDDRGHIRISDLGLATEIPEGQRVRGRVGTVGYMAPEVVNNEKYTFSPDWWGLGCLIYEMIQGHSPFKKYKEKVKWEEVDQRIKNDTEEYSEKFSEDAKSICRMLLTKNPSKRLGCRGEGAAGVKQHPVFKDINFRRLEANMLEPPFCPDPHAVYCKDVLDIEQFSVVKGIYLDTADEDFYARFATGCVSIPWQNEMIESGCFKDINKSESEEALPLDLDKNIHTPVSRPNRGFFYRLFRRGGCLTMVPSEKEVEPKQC
Procedure: as §1, §2, §3, §4

SGK1 = molecular target: T23, SGK1 (Homo sapiens, UniProt O00141); conditions: SGK1, 1 µM; read-out: Residual Activity (%)
T23 construct: purchased ProQinase
Procedure: as §1, §2, §3, §4

JAK3 = molecular target: T24, JAK3 (Homo sapiens, UniProt P52333); conditions: JAK3, 1 µM; read-out: Residual Activity (%)
T24 construct: purchased ProQinase
Procedure: as §1, §2, §3, §4

CAMK2D = molecular target: T25, CAMK2D (Homo sapiens, UniProt Q13557); conditions: read-out: Residual Activity (%)
T25 construct: purchased ProQinase
Procedure: as §1, §2, §3, §4

VEGF-R1 = molecular target: T26, VEGF-R1 (Homo sapiens, UniProt P17948); conditions: VEGF-R1, 1 µM; read-out: Residual Activity (%)
T26 construct: purchased ProQinase
Procedure: as §1, §2, §3, §4

FES = molecular target: T27, FES (Homo sapiens, UniProt P07332); conditions: read-out: Residual Activity (%)
T27 construct: purchased ProQinase
Procedure: as §1, §2, §3, §4

PHKG2 = molecular target: T28, PHKG2 (Homo sapiens, UniProt P15735); conditions: PHKG2, 1 µM; read-out: Residual Activity (%)
T28 construct: purchased ProQinase
Procedure: as §1, §2, §3, §4

p38-gamma = molecular target: T29, p38-gamma (Homo sapiens, UniProt P53778); conditions: read-out: Residual Activity (%)
T29 construct: purchased ProQinase
Procedure: as §1, §2, §3, §4

T1 sequence (P42679 whole entry): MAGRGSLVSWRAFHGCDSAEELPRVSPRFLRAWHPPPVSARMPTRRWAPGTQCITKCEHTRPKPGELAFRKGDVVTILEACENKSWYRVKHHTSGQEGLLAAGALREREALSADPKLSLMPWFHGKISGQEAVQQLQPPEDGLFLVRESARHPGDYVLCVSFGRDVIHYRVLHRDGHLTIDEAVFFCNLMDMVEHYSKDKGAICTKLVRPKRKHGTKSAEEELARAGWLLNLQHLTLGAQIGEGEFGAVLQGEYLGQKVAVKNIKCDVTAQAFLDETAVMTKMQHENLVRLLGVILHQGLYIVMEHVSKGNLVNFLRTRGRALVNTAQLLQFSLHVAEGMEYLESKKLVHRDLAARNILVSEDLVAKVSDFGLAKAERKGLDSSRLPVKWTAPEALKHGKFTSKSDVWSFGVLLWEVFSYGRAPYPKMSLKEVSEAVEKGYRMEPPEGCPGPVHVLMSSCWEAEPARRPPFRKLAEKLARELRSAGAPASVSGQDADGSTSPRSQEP

Compound COc1ccc(-c2cc(C(=O)Nc3cc(-c4c(-c5ccc(F)cc5)noc4C(C)C)ccn3)n(CC3NCC(O)C3O)c2)cc1 (centres unmarked) [29d] has a remaining activity at 1 µM (MATK) of 167%, a remaining activity at 1 µM (TSK2) of 99% and a remaining activity at 1 µM (CK2-alpha1) of 103%. It also gave a remaining activity at 1 µM (MAPKAPK5) of 110%, a remaining activity at 1 µM (SRPK1) of 105% and a remaining activity at 1 µM (PDGFR-beta) of 91%. For the same compound, the remaining activity at 1 µM (RPS6KA1) was 84%, the remaining activity at 1 µM (ERK5) was 93% and the remaining activity at 1 µM (TSSK1) was 109%. It also gave a remaining activity at 1 µM (VEGF-R3) of 124%, a remaining activity at 1 µM (PAK2) of 107% and a remaining activity at 1 µM (CDK2/CycE1) of 93%. For the same compound, the remaining activity at 1 µM (CHK1) was 97%, the remaining activity at 1 µM (MST3) was 117% and the remaining activity at 1 µM (BRSK1) was 104%. The remaining activity at 1 µM (EPHA4) was 100%, the remaining activity at 1 µM (WEE1) was 95% and the remaining activity at 1 µM (ABL1) was 95%. The remaining activity at 1 µM (EPHB4) was 118%, the remaining activity at 1 µM (NLK) was 71% and the remaining activity at 1 µM (PKC-eta) was 113%. It also gave a remaining activity at 1 µM (GRK4) of 111%, a remaining activity at 1 µM (SGK1) of 102% and a remaining activity at 1 µM (JAK3) of 81%. For the same compound, the remaining activity at 1 µM (CAMK2D) was 100%, the remaining activity at 1 µM (VEGF-R1) was 119% and the remaining activity at 1 µM (FES) was 120%. The remaining activity at 1 µM (PHKG2) was 93% and the remaining activity at 1 µM (p38-gamma) was 99%.
